The numbers were not newly measured in US7285553B2, “Serotonergic 5HT7 receptor compounds for treating ocular and CNS disorders” (Alcon Manufacturing, Ltd., priority 1998, dated 2007), which cites them from elsewhere.

The subject of data set [1] is IOP. The conditions noted are these: glaucomatous monkeys.
The next data set concerns rabbit eye. The conditions noted are these: for IOP: rabbits; for intraocular pressure in the anterior chamber of the eye: topically applied to the rabbit eye.
The subject of data set [2] is IOP.
Data set [3] has as its system IOP. This is another data set of the same source.

Where two headings read alike, the source gives them in different places.

With `COc1ccccc1N1CCN(CCCNc2c(C)c(=O)n(C)c(=O)n2C)CC1` [5-methylurapidil], in the data set with IOP [1], the IOP entry was “lowered IOP”.

With `CCCN(CCC)C1CCc2cccc(O)c2C1` (centres unmarked) [8-hydroxy DPAT], the IOP result in the data set on rabbit eye is given as “lower IOP”.

Turning to `NCCc1c[nH]c2ccc(C(N)=O)cc12` [Example 5-CT, 5-carboxamidotryptamine], the “intraocular pressure in the anterior chamber of the eye” value in the data set with rabbit eye is reported as “raise intraocular pressure”.

As to `NCCc1c[nH]c2ccc(O)cc12` [Example 5HT, 5-hydroxy tryptamine], in the data set on IOP [2] (intracamerally), the IOP result was “raised IOP” and the blood-aqueous barrier result is on record as “caused breakdown of the blood-aqueous barrier”. The IOP result in the data set on IOP [2] (topically applied) is recorded as “lowers IOP”. In the data set on rabbit eye, the “intraocular pressure in the anterior chamber of the eye” value is given as “raise intraocular pressure”.

With `O=C(c1ccc(F)cc1)C1CCN(CCn2c(=O)[nH]c3ccccc3c2=O)CC1` [Ketanserin], the IOP entry in the data set with IOP [3] (man) and with rabbit eye was “lowers IOP” in each case.

As to `c1ccc2c(c1)OC[C@H](CNCCCOc1ccc3c(c1)OCO3)O2` [MKC-242], in the data set on rabbit eye, the IOP result is listed as “lower IOP”.

Regarding `CC[C@@H](CO)NC(=O)[C@@H]1C=C2c3cccc4c3c(cn4C)C[C@H]2N(C)C1` [Methysergide], the IOP entry in the data set on rabbit eye is on record as “lowered IOP”.

Turning to `COc1cccc(CCc2ccccc2OCC(CN(C)C)OC(=O)CCC(=O)O)c1` (centres unmarked) [Saprogrelate], the IOP entry in the data set with IOP [3] (man, dosed topically or orally) was “lowers IOP”; in the data set on rabbit eye (dosed topically or orally), “lowers IOP”.

Regarding `CNCCC(Oc1ccc(C(F)(F)F)cc1)c1ccccc1` (centres unmarked) [fluoxetine], the IOP entry in the data set on IOP [3] (human subjects, oral administration) is on record as “raises IOP”.
